From publication PMC8162404, “Proteomimetic surface fragments distinguish targets by function” (Chemical Science, 2020)
Where two headings read alike, the source gives them in different places.

Experiments:
Experiment in all cases: Pull-down assay with immobilized protein and LSM libraries
CaM = target: T1, CaM (Bos taurus, UniProt P62157); format: binding, bovine; conditions: 1:2 stoichiometry assumed, read-out: Surface mapping KD (apparent)
T1 construct: made in house; host or cells: E. coli BL21 (DE3)
Method: Pull-down assays with immobilized test proteins and foldameric LSM libraries were carried out. Proteins were equilibrated with LSM probes, and equilibrium bound fractions (FB) were determined from the unbound fractions measured by HPLC-MS methods. Hits were corrected with background binding of the resin. The protocol allowed all binding events to equilibrate irrespective of affinity, specificity, and binding kinetics. This was essential to judge overall druggability and promiscuity. Importantly, the concentration of protein and the total concentration of foldameric LSMs were equimolar, which minimized competition between the probes. This experimental setup approximated independent binding of individual library members. Results were visualized as heat maps of dissociation constants (Fig. 3).
Pull-down assay and data analysis
Pull-down assay. LSM sublibraries were screened separately as previously described.(2) Experiments were performed in the following buffers: (i) 20 mM pH 7.4 HEPES, 150 mM NaCl, 5 mM CaCl2 for CaM; (ii) 50 mM pH 7.4 HEPES, 150 mM NaCl, 1 mM TCEP, 1 mM CaCl2 for S100 proteins; (iii) 20 mM pH 7.4 HEPES, 150 mM NaCl, 1 mM TCEP for Gal-1 and (iv) 20 mM pH 7.4 HEPES, 150 mM NaCl for RecQ-WH. Assays were performed in paper filter spin cups (Thermo Scientific) with sample volumes of 100 µl. Hexahistidine-tagged proteins were immobilized on previously washed Co-NTA resin (TALON, Takara Bio USA, Inc., […]
LSM sublibrary was added, in which each of the 64 library members were used at a concentration of 1 µM. Samples were incubated at room temperature for 30 min with shaking at 100 rpm. Then, samples were centrifuged at 1000 rpm for 2 min and washed with 100 µl pull-down buffer to remove unbound compounds.
The control experiments were performed using the same compounds and the resin but without the immobilized protein. In case of competitive assays, competitor peptides were added to LSM sublibrary samples in 200 µM final concentration. In the case of Gal-1, lactose (competitor) was used in a concentration of 10 mM. Experiments were performed at least twice. Mean […]
LC-MS methods and parameters. HPLC/ESI-MS analysis was used to characterize the samples from the pull-down assay. LC-MS analysis was performed with a Thermo Scientific Dionex UltiMate 3000 HPLC system interfaced to an LTQ ion trap mass spectrometer (Thermo Electron Corp., San Jose, CA, USA). Samples were injected onto an Aeris Widepore XB-C18 (250 x 4.6 mm) analytical HPLC column using gradient elution 5-80 % solution B during 25 minutes. For pull-down samples, eluent composition was 0.1% acetic acid in distilled water (Solution A) and 0.1% acetic acid in acetonitrile (solution B). Mass spectra were acquired in full scan mode from 200 to 2000 m/z range. For overlapping peaks, selective reaction monitoring (SRM) was […]
MS data analysis. Thermo Xcalibur 2.2 software was used for peak identification and integration. The majority of the foldameric fragments could be resolved independently via HPLC-MS/MS measurements based on molecular weight, MS fragmentation pattern and retention time. Peaks of some foldamers with β3-hIle or β3-hLeu in position R2 could not be resolved, these were integrated and averaged. In the processing method, each sample component was associated to a chromatographic peak based on previously identified mass (m/z) and retention time (ref (2) and Table S7-10). Using ICIS peak detection algorithm, the general detection and integration criteria were: smoothing points: 5, baseline window: 80, area noise factor: 5, peak noise factor: 10. Using these processing setups, all raw data files were reprocessed together and analyzed. Errors in peak identification during the automatic processing were corrected manually.
Calculation of the discussed parameters
1. Bound fractions (FB.) were calculated from the HPLC-MS intensity loss of the LSM probes compared to the control where no protein was immobilized to the resin: […]

S100B = target: T2, S100B (Homo sapiens, UniProt P04271); format: binding; conditions: 1:1 binding assumed, read-out: Surface mapping KD (apparent)
T2 construct: made in house; host or cells: Escherichia coli BL21(DE3)
T2 sequence (P04271 1-92): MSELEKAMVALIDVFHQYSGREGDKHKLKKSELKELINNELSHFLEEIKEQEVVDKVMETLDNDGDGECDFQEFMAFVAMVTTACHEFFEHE
Procedure, shortened: (§1)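 Buffers were HEPES pH 7.4 with 150 mM NaCl, plus 1 mM TCEP and 1 mM CaCl2 (50 mM HEPES) for S100A4 and S100B, 1 mM TCEP for Gal-1, and no additive for RecQ-WH. Immobilized protein at 64 µM was equilibrated 30 min with the LSM sublibrary, and unbound probes were measured by LC-MS.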

Gal-1 = target: T3, Gal-1 (Homo sapiens, UniProt P09382); format: binding; conditions: H14 library; 1:1 binding assumed; read-out: Surface mapping KD (apparent)
T3 construct: made in house; host or cells: E. coli BL21(DE3)
Procedure, shortened: as §1

T3 sequence (P09382 whole entry): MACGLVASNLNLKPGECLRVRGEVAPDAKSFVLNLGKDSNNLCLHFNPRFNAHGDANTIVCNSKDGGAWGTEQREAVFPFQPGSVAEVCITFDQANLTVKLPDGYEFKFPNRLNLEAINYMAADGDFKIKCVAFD

| Kd (CaM; H12 library) [µM] | Kd (S100B; H12 library) [µM] | Compound | also measured |
| --- | --- | --- | --- |
| 252 | 419 | CC[C@H](C)[C@@H](CC(=O)N[C@H]1CCC[C@@H]1C(=O)N[C@H]1CCC[C@@H]1C(N)=O)NC(=O)[C@H]1CCC[C@@H]1NC(=O)[C@H]1CCC[C@@H]1NC(=O)C[C@H](CO)NC(=O)[C@H]1CCC[C@@H]1NC(=O)[C@H]1CCC[C@@H]1N [H12 SI] |  |
| 392 |  | C[C@@H](CC(=O)N[C@H]1CCC[C@@H]1C(=O)N[C@H]1CCC[C@@H]1C(N)=O)NC(=O)[C@H]1CCC[C@@H]1NC(=O)[C@H]1CCC[C@@H]1NC(=O)C[C@@H](NC(=O)[C@H]1CCC[C@@H]1NC(=O)[C@H]1CCC[C@@H]1N)[C@@H](C)O [H12 TA] |  |
| 447 |  | C[C@@H](O)[C@@H](CC(=O)N[C@H]1CCC[C@@H]1C(=O)N[C@H]1CCC[C@@H]1C(=O)N[C@@H](CCC(N)=O)CC(=O)N[C@H]1CCC[C@@H]1C(=O)N[C@H]1CCC[C@@H]1C(N)=O)NC(=O)[C@H]1CCC[C@@H]1NC(=O)[C@H]1CCC[C@@H]1N [H12 TQ] |  |
| 282 | 286 | C[C@@H](O)[C@@H](CC(=O)N[C@H]1CCC[C@@H]1C(=O)N[C@H]1CCC[C@@H]1C(=O)N[C@@H](CCCNC(=N)N)CC(=O)N[C@H]1CCC[C@@H]1C(=O)N[C@H]1CCC[C@@H]1C(N)=O)NC(=O)[C@H]1CCC[C@@H]1NC(=O)[C@H]1CCC[C@@H]1N [H12 TR] |  |

The remaining lines, values behind:

| Compound | Kd (CaM; H12 library) [µM] | Kd (S100B; H12 library) [µM] | also measured |
| --- | --- | --- | --- |
| NC(=O)C[C@@H](CC(=O)N[C@H]1CCC[C@@H]1C(=O)N[C@H]1CCC[C@@H]1C(=O)N[C@H](CC(=O)N[C@H]1CCC[C@@H]1C(=O)N[C@H]1CCC[C@@H]1C(N)=O)Cc1ccccc1)NC(=O)[C@H]1CCC[C@@H]1NC(=O)[C@H]1CCC[C@@H]1N [H12 NF] | 162 | 368 |  |
| NC(=O)C[C@@H](CC(=O)N[C@H]1CCC[C@@H]1C(=O)N[C@H]1CCC[C@@H]1C(=O)N[C@H](CC(=O)N[C@H]1CCC[C@@H]1C(=O)N[C@H]1CCC[C@@H]1C(N)=O)Cc1c[nH]c2ccccc12)NC(=O)[C@H]1CCC[C@@H]1NC(=O)[C@H]1CCC[C@@H]1N [H12 NW] | 63 | 155 |  |
| NC(=O)CC[C@@H](CC(=O)N[C@H]1CCC[C@@H]1C(=O)N[C@H]1CCC[C@@H]1C(=O)N[C@H](CC(=O)N[C@H]1CCC[C@@H]1C(=O)N[C@H]1CCC[C@@H]1C(N)=O)Cc1ccccc1)NC(=O)[C@H]1CCC[C@@H]1NC(=O)[C@H]1CCC[C@@H]1N [H12 QF] | 181 | 461 |  |
| NC(=O)[C@H]1CCC[C@@H]1NC(=O)[C@H]1CCC[C@@H]1NC(=O)C[C@H](Cc1ccccc1)NC(=O)[C@H]1CCC[C@@H]1NC(=O)[C@H]1CCC[C@@H]1NC(=O)C[C@H](CO)NC(=O)[C@H]1CCC[C@@H]1NC(=O)[C@H]1CCC[C@@H]1N [H12 SF] | 153 | 189 |  |
| CC(C)C[C@@H](CC(=O)N[C@H]1CCC[C@@H]1C(=O)N[C@H]1CCC[C@@H]1C(N)=O)NC(=O)[C@H]1CCC[C@@H]1NC(=O)[C@H]1CCC[C@@H]1NC(=O)C[C@H](CO)NC(=O)[C@H]1CCC[C@@H]1NC(=O)[C@H]1CCC[C@@H]1N [H12 SL] | 252 | 419 |  |
| C[C@@H](O)[C@@H](CC(=O)N[C@H]1CCC[C@@H]1C(=O)N[C@H]1CCC[C@@H]1C(=O)N[C@H](CC(=O)N[C@H]1CCC[C@@H]1C(=O)N[C@H]1CCC[C@@H]1C(N)=O)Cc1ccccc1)NC(=O)[C@H]1CCC[C@@H]1NC(=O)[C@H]1CCC[C@@H]1N [H12 TF] | 90 | 185 |  |
| CC[C@H](C)[C@@H](CC(=O)N[C@H]1CCC[C@@H]1C(=O)N[C@H]1CCC[C@@H]1C(N)=O)NC(=O)[C@H]1CCC[C@@H]1NC(=O)[C@H]1CCC[C@@H]1NC(=O)C[C@@H](NC(=O)[C@H]1CCC[C@@H]1NC(=O)[C@H]1CCC[C@@H]1N)[C@@H](C)O [H12 TI] | 110 |  |  |
| CC(C)C[C@@H](CC(=O)N[C@H]1CCC[C@@H]1C(=O)N[C@H]1CCC[C@@H]1C(N)=O)NC(=O)[C@H]1CCC[C@@H]1NC(=O)[C@H]1CCC[C@@H]1NC(=O)C[C@@H](NC(=O)[C@H]1CCC[C@@H]1NC(=O)[C@H]1CCC[C@@H]1N)[C@@H](C)O [H12 TL] | 110 |  |  |
| CSCC[C@@H](CC(=O)N[C@H]1CCC[C@@H]1C(=O)N[C@H]1CCC[C@@H]1C(N)=O)NC(=O)[C@H]1CCC[C@@H]1NC(=O)[C@H]1CCC[C@@H]1NC(=O)C[C@@H](NC(=O)[C@H]1CCC[C@@H]1NC(=O)[C@H]1CCC[C@@H]1N)[C@@H](C)O [H12 TM] | 200 |  |  |
| CC(C)[C@@H](CC(=O)N[C@H]1CCC[C@@H]1C(=O)N[C@H]1CCC[C@@H]1C(N)=O)NC(=O)[C@H]1CCC[C@@H]1NC(=O)[C@H]1CCC[C@@H]1NC(=O)C[C@@H](NC(=O)[C@H]1CCC[C@@H]1NC(=O)[C@H]1CCC[C@@H]1N)[C@@H](C)O [H12 TV] | 208 |  |  |
| C[C@@H](O)[C@@H](CC(=O)N[C@H]1CCC[C@@H]1C(=O)N[C@H]1CCC[C@@H]1C(=O)N[C@H](CC(=O)N[C@H]1CCC[C@@H]1C(=O)N[C@H]1CCC[C@@H]1C(N)=O)Cc1c[nH]c2ccccc12)NC(=O)[C@H]1CCC[C@@H]1NC(=O)[C@H]1CCC[C@@H]1N [H12 TW] | 25 | 113 |  |
| C[C@@H](O)[C@@H](CC(=O)N[C@H]1CCC[C@@H]1C(=O)N[C@H]1CCC[C@@H]1C(=O)N[C@H](CC(=O)N[C@H]1CCC[C@@H]1C(=O)N[C@H]1CCC[C@@H]1C(N)=O)Cc1ccc(O)cc1)NC(=O)[C@H]1CCC[C@@H]1NC(=O)[C@H]1CCC[C@@H]1N [H12 TY] | 132 |  |  |
| C[C@@H](CC(=O)N[C@H]1CCCC[C@@H]1C(=O)N[C@H]1CCCC[C@@H]1C(=O)N[C@@H](CCCCN)CC(=O)N[C@H]1CCCC[C@@H]1C(N)=O)NC(=O)[C@H]1CCCC[C@@H]1N [H14 AK] |  |  | Kd (CaM; H14 library): 181 µM; Kd (S100B; H14 library): 180 µM |
| NCCCC[C@@H](CC(=O)N[C@H]1CCCC[C@@H]1C(=O)N[C@H]1CCCC[C@@H]1C(=O)N[C@@H](CCC(N)=O)CC(=O)N[C@H]1CCCC[C@@H]1C(N)=O)NC(=O)[C@H]1CCCC[C@@H]1N [H14 KQ] |  |  | Kd (CaM; H14 library): 307 µM; Kd (S100B; H14 library): 173 µM |
| NCCCC[C@@H](CC(=O)N[C@H]1CCCC[C@@H]1C(=O)N[C@H]1CCCC[C@@H]1C(=O)N[C@@H](CO)CC(=O)N[C@H]1CCCC[C@@H]1C(N)=O)NC(=O)[C@H]1CCCC[C@@H]1N [H14 KS] |  |  | Kd (CaM; H14 library): 262 µM; Kd (S100B; H14 library): 217 µM |
| C[C@@H](O)[C@@H](CC(=O)N[C@H]1CCCC[C@@H]1C(N)=O)NC(=O)[C@H]1CCCC[C@@H]1NC(=O)[C@H]1CCCC[C@@H]1NC(=O)C[C@H](CCCNC(=N)N)NC(=O)[C@H]1CCCC[C@@H]1N [H14 RT] |  |  | Kd (CaM; H14 library): 124 µM; Kd (S100B; H14 library): 324 µM |
| NC(=O)[C@H]1CCCC[C@@H]1NC(=O)C[C@H](CC(=O)O)NC(=O)[C@H]1CCCC[C@@H]1NC(=O)[C@H]1CCCC[C@@H]1NC(=O)C[C@H](CO)NC(=O)[C@H]1CCCC[C@@H]1N [H14 SD] |  |  | Kd (CaM; H14 library): 225 µM; Kd (Gal-1): 432 µM |
